This is an account of results in US5935966A, “Pyrimidine carboxylates and related compounds and methods for treating inflammatory conditions” (Signal Pharmaceuticals, Inc., priority 1996, dated 1999).

One assay deals with NFκB and AP-1. The assay is described as follows: NFκB and AP-1 luciferase reporter assays in stable Jurkat T-cells (PMA/PHA stimulated). It is filed as cell-based, human. Conditions: Homo sapiens, average of NFκB and AP-1 assays, read-out: ICm (average of the measurements obtained from the NFκB and AP-1 assays). From the text: Stable human Jurkat T-cells containing an NFκB binding site (from the MHC promoter) fused to a minimal SV-40 promoter driving luciferase expression were used in this experiment. Cells were split to 3×10^5 cells/mL every 2-3 days (cell concentration should not exceed 1×10^6 cells/mL to keep the cells proliferating in log phase). These cells were counted, resuspended in fresh medium containing 10% Serum-Plus at a density of 1×10^6 cells/mL and plated in 96 well round bottom plates (200 μ.LAMBDA. per well) 18 hours prior to starting the experiment.
Compounds of this invention, dissolved in dimethyl sulfoxide (3.3, 0.33 and 0.03 μg/mL), were then added to the 96 well plates containing the cells and the plates were incubated for 0.5 h at 37° C. Then 50 ng/mL of phorbol 12-myristate-13-acetate (PMA) and 1 μg/mL of phytohemagglutinin (PHA) were added to each well and the cells were incubated for an additional 5 h at 37° C. The plates were centrifuged at 2200 RPM for 3 minutes at room temperature and then the medium was removed. To each well was added 60 μL of cell lysis buffer and the plates were left at room temperature for 0.25 h. Then 40 μL of each cell extract was transferred to a black 96 well plate and 50 μL of luciferase substrate buffer was added. Luminescence was immediately measured using a Packard TopCount.
For AP-1, the assay was run as described above for NFκB except stable Jurkat T-cells were used that contained a collagenase promoter driving luciferase expression. In addition, the concentration of PMA used was 5 ng/mL.
The IC50 values reported in Table 3 are the average of the measurements obtained from the NFκB and AP-1 assays described above.
As to `CCOC(=O)c1cnc(NN2C(=O)C=C(c3ccccc3)C2=O)nc1C(F)(F)F` [Example 40, ETHYL 2-[N-(1'-AMINO-3'-PHENYLMALEIMIDO)]-4-TRIFLUOROMETHYLPYRIMIDINE-5-CARBOXYLATE], the IC50 was found to be 1000 nM.
The same measure, in the same setting: with `CCOC(=O)c1cnc(N(C)N2C(=O)C=C(C)C2=O)nc1C(F)(F)F` [Example 42, ETHYL 2-[N-(1'-AMINOCITRACONAMIDO)-N-METHYL]-4-TRIFLUOROMETHYLPYRIMIDINE-5-CARBOXYLATE] the figure was 5000 nM.
On the same count and under the same terms, with `CCOC(=O)c1cnc(N(C)N2C(=O)C=C(C)C2=O)nc1-c1ccc(Cl)s1` [Example 68, ETHYL 2-[N-(1'-AMINOCITRACONAMIDO)-N-METHYL]-4-[2'-(5"-HLOROTHIENYL]PYRIMIDINE-5-CARBOXYLATE] the figure was 400 nM.
In the case of `CCOC(=O)c1cnc(N(C)N2C(=O)C=C(C)C2=O)nc1CC` [Example 73, ETHYL 2-[N-(1'-AMINOCITRACONAMIDO)-N-METHYL]-4-ETHYLPRYRIMIDINE-5-CARBOXYLATE], the IC50 is 50 nM.
Still for that read-out and setting: with `CCCc1nc(N(C(C)=O)N2C(=O)C=C(C)C2=O)ncc1C(=O)OCC` [Example 74, ETHYL 2-[N-ACETYL-N-(1'-AMINOCITRACONAMIDO)]-4-PROPYLPYRIMIDINE-5-CARBOXYLATE] the figure was 450 nM; with `CCOC(=O)c1cnc(N(C(C)=O)N2C(=O)C=C(C)C2=O)nc1C(F)(F)F` [Example 75, ETHYL 2-[N-ACETYL-N-(1'-AMINOCITRACONAMIDO)]-4-TRIFLUOROMETHYLPYRIMIDINE-5-CARBOXYLATE], 400 nM; with `COC(=O)c1cnc(NN2C(=O)C=C(C)C2=O)nc1C(F)(F)C(F)(F)F` [Example 77, METHYL 2-[N-(1'-AMINOCITRACONAMIDO)]-4-PENTAFLUOROETHYLPYRIMIDINE-5-CARBOXYLATE], 1300 nM.
The same measure, in the same setting: with `COC(=O)c1cnc(N(C)N2C(=O)C=C(C)C2=O)nc1C(F)(F)C(F)(F)F` [Example 78, METHYL 2-[N-(1'-AMINOCITRACONAMIDO)]-N-METHYL]-4-PENTAFLUOROETHYLPYRMIDINE-5-CARBOXYLATE] the figure was 150 nM; with `CC1=CC(=O)N(Nc2ncc(C(=O)OC(C)(C)C)c(C(F)(F)F)n2)C1=O` [Example 79, t-BUTYL 2-[N-(1'-AMINOCITRACONAMIDO)]-4-TRIFLUOROMETHYLPYRIMIDINE-5-CARBOXYLATE], 200 nM; with `COC(=O)c1cnc(N(C)N2C(=O)C=C(C)C2=O)nc1C(F)(F)F` [Example 81, METHYL 2-[N-(1'-AMINOCITRACONAMIDO)-N-METHYL]-4-TRIFLUOROMETHYLPYRIMIDINE-5-CARBOXYLATE], 100 nM.
`COC(=O)c1cnc(NN2C(=O)C=C(C)C2=O)nc1-c1cccs1` [Example 83, METHYL 2-[N-(1'-AMINOCITRACONAMIDO)]-4-(2'-THIENYL)PYRIMIDINE-5-CARBOXYLATE]: the IC50 turned out to be 80 nM.
In the case of `CCOC(=O)c1cnc(N(Cc2ccccc2)N2C(=O)C=C(C)C2=O)nc1C(F)(F)F` [Example 84, ETHYL 2-[N-(1'-AMINOCITRACONAMIDO-N-BENZYL)]-4-TRIFLUOROMETHYLPYRIMIDINE-5-CARBOXYLATE], the IC50 turned out to be 450 nM.
Consider `CCOC(=O)c1cnc(N(C)N2C(=O)C=C(C)C2=O)nc1-c1cccs1` [Example 85, ETHYL 2-[N-(1'-AMINOCITRACONAMIDO-N-METHYL)]-4-(2'-THIENYL)PYRIMIDINE-5-CARBOXYLATE], for which the IC50 amounted to 20 nM.
Turning to `CC1=CC(=O)N(Nc2ncc(C(=O)c3ccccc3)c(C(F)(F)F)n2)C1=O` [Example 87, 5-BENZOYL 2-[N-(1'-AMINOCITRACONAMIDO)]-4-TRIFLUOROMETHYLPYRIMIDINE], the IC50 came to 550 nM.
Turning to `CCOC(=O)c1cnc(NN2C(=O)C=C(C)C2=O)nc1-c1ccsc1` [Example 88, ETHYL 2-[N-(1'-AMINOCITRACONAMIDO)]-4-(3'-THIENYL)PYRIMIDINE-5-CARBOXYLATE], the IC50 came to 500 nM.
Still for that read-out and setting: the same measure for `CCOC(=O)c1cnc(N(C)N2C(=O)C=C(C)C2=O)nc1-c1ccsc1` [Example 89, ETHYL 2-[N-(1'-AMINOCITRACONAMIDO-N-METHYL)]-4-(3-THIENYL)PYRIMIDINE-5-CARBOXYLATE]: 200 nM; for `CCOC(=O)c1cnc(NN2C(=O)C=C(C)C2=O)nc1-c1ccc(C)s1` [Example 90, ETHYL 2-[N-(1'-AMINOCITRACONAMIDO)]-4-[2'-(5'-METHYLTHIENYL)]PYRIMIDINE-5-CARBOXYLATE]: 60 nM.
Still for that read-out and setting: with `CCOC(=O)c1cnc(NN2C(=O)C=C(C)C2=O)nc1-c1ccco1` [Example 91, ETHYL 2-[N-(1'-AMINOCITRACONAMIDO)]-4-(2'-FURANYL)PYRIMIDINE-5-CARBOXYLATE] the figure was 1100 nM; with `CCOC(=O)c1cnc(N(C)N2C(=O)C=C(C)C2=O)nc1-c1ccc(C)s1` [Example 92, ETHYL 2-[N-(1'-AMINOCITRACONAMIDO-N-METHYL)]-4-[2'-(5'-METHYLTHIENYL)]PYRIMIDINE-5-CARBOXYLATE], 300 nM.
On the same count and under the same terms, with `CCOC(=O)c1cnc(NN2C(=O)C=C(C)C2=O)nc1-c1cc2ccccc2s1` [Example 93, ETHYL 2-[N-(1'-AMINOCITRACONAMIDO)]-4-(2'-THIANAPHTHYL)PYRIMIDINE-5-CARBOXYLATE] the figure was 800 nM; with `CCN(c1ncc(C(=O)OC)c(C(F)(F)F)n1)N1C(=O)C=C(C)C1=O` [Example 94, METHYL 2-[N-(1'-AMINOCITRACONAMIDO-N-ETHYL)]-4-TRIFLUOROMETHYLPYRIMIDINE-5-CARBOXYLATE], 1100 nM; with `CCCC(=O)N(c1ncc(C(=O)OCC)c(C(F)(F)F)n1)N1C(=O)C=C(C)C1=O` [Example 95, ETHYL 2-[N-(1'-AMINOCITRACONAMIDO-N-BUTANOYL)]-4-TRIFLUOROMETHYLPYRIMIDINE-5-CARBOXYLATE], 300 nM.
Regarding `CCOC(=O)c1cnc(N(C(=O)NC)N2C(=O)C=C(C)C2=O)nc1C(F)(F)F` [Example 96, ETHYL 2-[N-(1'-AMINOCITRACONAMIDO)-N-(N'-METHYLCARBOXAMIDYL)]-4-TRIFLUOROMETHYLPYRIMIDINE-5-CARBOXYLATE], the IC50 was determined as 700 nM.
Regarding `CCOC(=O)c1cnc(N(C(=O)Cc2ccccc2)N2C(=O)C=C(C)C2=O)nc1C(F)(F)F` [Example 97, ETHYL 2-[N-(1'-AMINOCITRACONAMIDO)-N-(1-OXO-2"-PHENYLETHYL]-4-TRIFLUOROMETHYLPYRIMIDINE-5-CARBOXYLATE], the IC50 stood at 900 nM.
Same read-out and setting: with `CCOC(=O)c1cnc(NN2C(=O)C=C(C)C2=O)nc1COC` [Example 98, ETHYL 2-[N-(1'-AMINOCITRACONAMIDO)]-4-METHOXYMETHYL PYRIMIDINE-5-CARBOXYLATE] the figure was 6000 nM; with `CCOC(=O)c1cnc(N(C(=O)OCC)N2C(=O)C=C(C)C2=O)nc1C(F)(F)F` [Example 99, ETHYL 2-[N-(1'-AMINOCITRACONAMIDO)-N-(ETHOXYCARBONYL)]-4-TRIFLUOROMETHYLPYRIMIDINE-5-CARBOXYLATE], 400 nM.
Same read-out and setting: with `CCOC(=O)c1cnc(N(C(=O)c2ccccc2)N2C(=O)C=C(C)C2=O)nc1C(F)(F)F` [Example 100, ETHYL 2-[N-(1'-AMINOCITRACONAMIDO)-N-BENZOYL]-4-TRIFLUOROMETHYLPYRIMIDINE-5-CARBOXYLATE] the figure was 800 nM; with `CCc1nc(NN2C(=O)C=C(C)C2=O)ncc1C(=O)c1ccccc1` [Example 101, 5-BENZOYL 2-[N-(1'-AMINOCITRACONAMIDO)]-4-ETHYLPYRIMIDINE], 600 nM; with `CCc1nc(N(C)N2C(=O)C=C(C)C2=O)ncc1C(=O)c1ccccc1` [Example 102, 5-BENZOYL 2-[N-(1'-AMINOCITRACONAMIDO)-N-METHYL]-4-ETHYLPYRIMIDINE], 400 nM.
Still for that read-out and setting: with `CCOC(=O)c1cnc(N(C)N2C(=O)C=C(C)C2=O)nc1C(F)(F)C(F)(F)F` [Example 103, ETHYL-2-[N-(1'-AMINOCITRACONAMIDO)-N-METHYL]-4-PENTAFLUOROETHYLPYRIMIDINE-5-CARBOXYLATE] the figure was 400 nM; with `CCOC(=O)c1cnc(N(C)N2C(=O)C=C(C)C2=O)nc1-c1cc2ccccc2s1` [Example 104, ETHYL 2-[N-(1'-AMINOCITRACONAMIDO)]-4-(2'-THIANAPHTHYL)PYRIMIDINE-5-CARBOXYLATE], 200 nM.
In the case of `CCOC(=O)c1cnc(NN2C(=O)C=C(C)C2=O)nc1-c1nccs1` [Example 105, ETHYL 2-[N-(1'-AMINOCITRACONAMIDO)]-4-(2'-THIAZOLYL)PYRIMIDINE-5-CARBOXYLATE], the IC50 was 2400 nM.
As for `CCOC(=O)c1cnc(N(C)N2C(=O)C=C(C)C2=O)nc1-c1nccs1` [Example 106, ETHYL 2-[N-(1'-AMINOCITRACONAMIDO)-N-METHYL]-4-(2'-THIAZOLYL)PYRIMIDINE-5-CARBOXYLATE], the IC50 is 1700 nM.

The assay is the same for the next values; noted with them: average of NFκB and AP-1 assays, read-out: ICm (average of the measurements obtained from the NFκB and AP-1 assays).
Consider “4-[N-(1'-AMINOCITRACONAMIDO)]-5-(N-METHYL TETRAZOLYL)-2-(2"-THIENYL)PYRIMIDINE [Example 135]”, for which the IC50 was 120 nM.
`CCOC(=O)c1cnc(NN2C(=O)C(CC)=C(CC)C2=O)nc1C(F)(F)F` [Example 41, ETHYL 2-[N-(1'-AMINO-3',4'-DIETHYLMALEIMIDO)]-4-TRIFLUOROMETHYLPYRIMIDINE-5-CARBOXYLATE]: the IC50 came to 3900 nM.
